According to the NIST ThermoML archive (doi:10.1016/j.jct.2005.07.009):

Assays:
[1] = 295.15 K; 101.33 kPa; Liquid; Vibrating tube method
[2] = refractive index (Na D-line) (dimensionless); details: 298.15 K; 101.33 kPa; Liquid; Standard Abbe refractometry
[3] = xn = mol fraction of the nth substance listed; details: 298.15 K, 101 kPa, Liquid, Vibrating tube method
[4] = excess molar enthalpy (molar enthalpy of mixing); xn = mol fraction of the nth substance listed; details: 298.15 K, 101 kPa, Liquid

BrCCCCBr [1,4-dibromobutane]
Details | mass density [kg/m3] | refractive index
[1] | 1819.44 | –
[2] | – | 1.5163

BrCCCBr [1,3-dibromopropane]
Details | mass density [kg/m3] | refractive index
[1] | 1970.25 | –
[2] | – | 1.5204

BrCCCCBr [1,4-dibromobutane] + CCOC=O
Details | excess molar enthalpy [kcal/mol] | mass density [kg/m3]
[3], x2 = 0.0952 | – | 1765.32
[3], x2 = 0.1744 | – | 1716.81
[3], x2 = 0.2604 | – | 1660.33
[3], x2 = 0.3295 | – | 1611.72
[3], x2 = 0.4012 | – | 1557.95
[3], x2 = 0.4668 | – | 1505.48
[3], x2 = 0.5355 | – | 1446.96
[3], x2 = 0.5888 | – | 1398.87
[3], x2 = 0.6436 | – | 1346.56
[3], x2 = 0.6981 | – | 1291.4
[3], x2 = 0.7934 | – | 1186.14
[3], x2 = 0.9238 | – | 1023.59
[3], x2 = 0.9623 | – | 970.42
[4], x2 = 0.0799 | 0.0549 | –
[4], x2 = 0.1652 | 0.0897 | –
[4], x2 = 0.2469 | 0.118 | –
[4], x2 = 0.3246 | 0.135 | –
[4], x2 = 0.397 | 0.145 | –
[4], x2 = 0.4607 | 0.149 | –
[4], x2 = 0.5109 | 0.147 | –
[4], x2 = 0.5179 | 0.148 | –
[4], x2 = 0.5525 | 0.145 | –
[4], x2 = 0.5649 | 0.143 | –
[4], x2 = 0.5973 | 0.14 | –
[4], x2 = 0.6082 | 0.137 | –
[4], x2 = 0.6459 | 0.131 | –
[4], x2 = 0.6929 | 0.121 | –
[4], x2 = 0.7514 | 0.103 | –
[4], x2 = 0.8051 | 0.0847 | –
[4], x2 = 0.8598 | 0.0615 | –
[4], x2 = 0.9121 | 0.0378 | –
[4], x2 = 0.9614 | 0.0142 | –

BrCCCBr [1,3-dibromopropane] + CCOC(=O)CC
Details | excess molar enthalpy [kcal/mol] | mass density [kg/m3]
[3], x2 = 0.1075 | – | 1839.36
[3], x2 = 0.161 | – | 1775.98
[3], x2 = 0.2159 | – | 1711.67
[3], x2 = 0.2732 | – | 1645.81
[3], x2 = 0.3842 | – | 1520.67
[3], x2 = 0.4468 | – | 1451.66
[3], x2 = 0.5011 | – | 1392.66
[3], x2 = 0.5622 | – | 1327.28
[3], x2 = 0.6827 | – | 1201.05
[3], x2 = 0.7443 | – | 1137.95
[3], x2 = 0.8686 | – | 1013.23
[4], x2 = 0.0471 | 0.00559 | –
[4], x2 = 0.1006 | 0.0087 | –
[4], x2 = 0.1564 | 0.00918 | –
[4], x2 = 0.2139 | 0.00786 | –
[4], x2 = 0.2707 | 0.00387 | –
[4], x2 = 0.3244 | -0.000813 | –
[4], x2 = 0.3765 | -0.00605 | –
[4], x2 = 0.4201 | -0.0111 | –
[4], x2 = 0.4478 | -0.0156 | –
[4], x2 = 0.4591 | -0.0195 | –
[4], x2 = 0.493 | -0.0144 | –
[4], x2 = 0.4983 | -0.0205 | –
[4], x2 = 0.5563 | -0.0245 | –
[4], x2 = 0.6207 | -0.026 | –
[4], x2 = 0.6908 | -0.0251 | –
[4], x2 = 0.7671 | -0.0219 | –
[4], x2 = 0.8476 | -0.0164 | –
[4], x2 = 0.9262 | -0.00906 | –

BrCCBr [1,2-dibromoethane]
Details | mass density [kg/m3] | refractive index
[1] | 2168.3 | –
[2] | – | 1.5357

BrCCCCCBr [1,5-dibromopentane]
Details | mass density [kg/m3] | refractive index
[1] | 1694.09 | –
[2] | – | 1.5099

BrCCCCBr [1,4-dibromobutane] + CCCC(=O)OCC
Details | excess molar enthalpy [kcal/mol] | mass density [kg/m3]
[3], x2 = 0.1092 | – | 1704.75
[3], x2 = 0.1651 | – | 1647.4
[3], x2 = 0.2725 | – | 1539.36
[3], x2 = 0.387 | – | 1427.18
[3], x2 = 0.4481 | – | 1368.56
[3], x2 = 0.502 | – | 1317.46
[3], x2 = 0.6423 | – | 1187.58
[3], x2 = 0.6846 | – | 1149.12
[3], x2 = 0.7489 | – | 1091.51
[3], x2 = 0.8041 | – | 1042.59
[3], x2 = 0.9323 | – | 931.23
[4], x2 = 0.0504 | 0.00535 | –
[4], x2 = 0.1096 | 0.00903 | –
[4], x2 = 0.173 | 0.0111 | –
[4], x2 = 0.2384 | 0.0112 | –
[4], x2 = 0.2992 | 0.00939 | –
[4], x2 = 0.3567 | 0.00607 | –
[4], x2 = 0.4115 | 0.000311 | –
[4], x2 = 0.4617 | -0.00511 | –
[4], x2 = 0.5078 | -0.00975 | –
[4], x2 = 0.5351 | -0.0127 | –
[4], x2 = 0.5479 | -0.0133 | –
[4], x2 = 0.5908 | -0.0158 | –
[4], x2 = 0.6504 | -0.0171 | –
[4], x2 = 0.7147 | -0.0172 | –
[4], x2 = 0.7818 | -0.0157 | –
[4], x2 = 0.8513 | -0.0125 | –
[4], x2 = 0.9352 | -0.006 | –

BrCCCCCCBr [1,6-dibromohexane] + CCOC(C)=O
Details | excess molar enthalpy [kcal/mol] | mass density [kg/m3]
[3], x2 = 0.1101 | – | 1558.02
[3], x2 = 0.2056 | – | 1515.22
[3], x2 = 0.2841 | – | 1476.78
[3], x2 = 0.3679 | – | 1432.01
[3], x2 = 0.4348 | – | 1393.28
[3], x2 = 0.5035 | – | 1350.27
[3], x2 = 0.623 | – | 1266.72
[3], x2 = 0.733 | – | 1177.88
[3], x2 = 0.8165 | – | 1101.03
[3], x2 = 0.8582 | – | 1059.17
[3], x2 = 0.8988 | – | 1015.65
[3], x2 = 0.9703 | – | 932.2
[4], x2 = 0.0852 | 0.0323 | –
[4], x2 = 0.179 | 0.0516 | –
[4], x2 = 0.2657 | 0.0644 | –
[4], x2 = 0.3506 | 0.0739 | –
[4], x2 = 0.4238 | 0.0791 | –
[4], x2 = 0.489 | 0.0806 | –
[4], x2 = 0.5186 | 0.0798 | –
[4], x2 = 0.5344 | 0.0792 | –
[4], x2 = 0.5598 | 0.078 | –
[4], x2 = 0.6031 | 0.0735 | –
[4], x2 = 0.6495 | 0.0677 | –
[4], x2 = 0.7011 | 0.0608 | –
[4], x2 = 0.7507 | 0.0522 | –
[4], x2 = 0.8025 | 0.0431 | –
[4], x2 = 0.8542 | 0.033 | –
[4], x2 = 0.9062 | 0.0221 | –
[4], x2 = 0.9578 | 0.0106 | –
